Test results reported in patent US9889184B2 (priority 2008, dated 2018).

System: Fov
Test: Effect of metal ions on NaD1 activity against Fov
Type: cell-based, Fusarium oxysporum f. sp. vasinfectum
Conditions: NaD1 10 μM, growth of Fov
Excerpt: Antifungal activity against Fusarium oxysporum f. sp. vasinfectum (Fov, Australian isolate VCG01111 isolated from cotton; from Wayne O'Neill, Farming Systems Institute, DPI, Queensland, Australia), Thielaviopsis basicola (gift from David Nehl, NSW DPI, Narrabri, Australia), Verticillium dahliae (from Helen McFadden, CSIRO Plant Industry, Black Mountain, Australia), Leptosphaeria maculans (from Barbara Howlett, University of Melbourne, Victoria, Australia) and Aspergillus nidulans (from Michael Hynes, University of Melbourne) was assessed essentially as described in Broekaert et al, 1990. Spores were isolated from sporulating cultures growing in either half-strength potato dextrose broth (PDB) (Fov and T. basicola), Czapeck-Dox Broth (V. dahliae) (Difco Laboratories) or 10% (v/v) clarified V8 medium (L. maculans and A. nidulans) by filtration through sterile muslin. Spore concentrations were determined using a hemocytometer and adjusted to 5×10^4 spores/mL in the appropriate growth medium. Spore suspensions (80 μL) were added to the wells of sterile 96-well flat-bottomed microtitre plates along with 20 μL of filter-sterilized (0.22 μm syringe filter; Millipore) NaD1, or water to give final protein concentrations of 0-10 μM. The plates were shaken briefly and placed in the dark at 25° C. without shaking until the optical density at 595 nm of the water control reached approximately 0.2 (24-72 h depending on growth rate). Hyphal growth was estimated by measuring the optical density at 595 nm using a microtitre plate reader (SpectraMax Pro M2; Molecular Devices). Each test was performed in quadruplicate.
The activity of NaD1 against Fov was examined as described with varying concentrations of CaCl2 (0.1, 0.2, 0.5, 1.0 and 2.0 μM) or MgCl2 (1.0, 2.0, 10, 20 and 50 μM) present in the medium to determine the effects of divalent cations on NaD1 activity.

Substance: NaD1: plant defensin isolated from floral tissue of Nicotiana alata (SEQ ID NO:12) (RECKTESNTFPGICITKPPCRKACISEKFTDGHCSKILRRCLCTKPC; Nicotiana alata (NaD1))
- Ca2+ more antagonistic than Mg2+: greater than 20 times
- CaCl2 concentration giving complete inactivation of NaD1: < 2 mM
- MgCl2 concentration giving complete inactivation of NaD1: 50 mM
